These results are taken from patent publication US20220249533A1, “COMPOSITIONS AND METHODS FOR BONE REPAIR AND BONE HEALTH” (DUKE UNIVERSITY, priority 2019, published 2022).

Molecules are shown by their SMILES.

The subject of one experiment is OVX mice. Nature of the experiment: A2BR agonist BAY 60-6583 treatment of OVX animals. Format: in vivo.
The subject of experiment [1] is primary mouse osteoprogenitor cells. Nature of the experiment: Adenosine-induced osteogenic differentiation in vitro. The class given is cell-based. To be noted: adenosine 30 μg/ml, 7 or 14 days, no osteogenic-inducing factors. The source says: Osteoprogenitor cells were isolated as previously described with modifications. All buffers were ice cold, unless otherwise indicated. Briefly, the femur, tibia, humerus, radius, and ulna of mice were harvested. BM was flushed out and discarded. The bone was collected and cut into 1-mm^3 chips in harvest buffer and then digested in digestion buffer containing growth media [α minimum essential medium (αMEM), fetal bovine serum (FBS) (10%, v/v), penicillin/streptomycin (10,000 U/ml; 1%, v/v)], and collagenase type 2 (1 mg/ml, w/v; Worthington Biochemical, Lakewood, N.J.) while shaking at 60 rpm on orbital shaker (catalog no. 51700-13, Cole-Parmer, Vernon Hills, Ill.) in humidified incubator (37° C., 5% CO2) for 1.5 hours. Digested bone chips were rinsed three times with growth media and transferred to two wells of six-well plate for culture. Media were […] days, and bone chips were further cultured for 3 days for cells to adhere and proliferate before passage. For the first passage, cells were treated with 0.25% trypsin-EDTA (Thermo Fisher Scientific) for 3 min, neutralized with growth media, detached with cell scraper, and subcultured along with bone chips. The procedure for subsequent passages were similar but without bone chips. All experiments were performed at three to four passages. […]

In experiment [2] the test system is mouse mononuclear cells undergoing osteoclast differentiation. Nature of the experiment: Osteoclast differentiation with adenosine in vitro. To be noted: adenosine 30 μg/ml, 6 days of osteoclast differentiation. The class given is cell-based. As to the method: All buffers used were ice cold, unless otherwise indicated. Briefly, the femur, tibia, humerus, radius, ulna, and vertebra were harvested and crushed with pestle and mortar in harvest buffer [phosphate-buffered solution (PBS) and FBS (2%, v/v)] to release BM tissue. BM was passed through a 70-μm cell strainer and centrifuged at 200 g for 5 min. Cells were resuspended in harvest buffer, gently layered onto Ficoll-Paque PLUS (GE Healthcare, Marlborough, Mass.) at 1:1 ratio, and centrifuged without rotor acceleration and deceleration at 200 g for 15 min. Afterward, the opaque middle layer with cells was collected, washed with harvest buffer, and centrifuged at 200 g for 5 min to yield a cell pellet. Isolated mononuclear cells were cultured in macrophage induction media, containing growth media, prostaglandin E2 (PGE2; 10^−7 M; Santa Cruz Biotechnology, Dallas, Tex.), and M-CSF (10 ng/ml; PeproTech, Rocky Hill, N.J.) at 100,000 cells/cm^2. For osteoclast differentiation, macrophages cultured for 3 days were further induced in osteoclast induction media containing growth media, PGE2 (10^−7 M), M-CSF (10 ng/ml), and RANKL (10 ng/ml; PeproTech). […]

Experiment [3] relates to young and old mice bone marrow stromal cells. Briefly: Alizarin Red S deposition, bone marrow stromal cells with adenosine. Format: cell-based, mouse. As to the method:
Alizarin Red S, an anthraquinone derivative, may be used to identify calcium in tissue sections. […] Calcium forms an Alizarin Red S-calcium complex in a chelation process, and the end product is birefringent. […]
• Aspirate medium from cell dish (P1 cells). • Rinse with sterile PBS, aspirate. • Add 5 mL trypsin (T75 flask), incubate for 4 min at 37 C. • Add 5 mL GM to stop. • Use cell scraper to further release cells. • Transfer to tube, use additional 5 mL GM to rinse the dish and transfer. • Spin down at 1200 rpm for 4 min. • Resuspend cells, seed into culture plate at 20,000 cells/cm^2. • 2 mL/well in 6-well • 0.5 mL/well in 24-well • Freeze the rest cells in freezing medium. • 10% DMSO • 90% GM • Prepare GM-ADO (60 ug/mL) fresh: • 18 mL GM • 180 uL ADO stock (6 mg/mL) • Refresh medium daily for two weeks with the culture conditions: • GM • GM-ADO • OM (positive control) • In the third week, use phosphate supplementation: • GM+ADO +3 mM phosphate • GM+3 mM phosphate • OM (positive control) • Alizarin red S staining at 14 d and 21 d • Wash cells gently with PBS. • Fix with 4% PFA for 15 min. […] Discard milliQ water. • Alizarin red S quantification • Add 500 ul of HCl (0.5M) to each well for 10 min. at room temp with gentle shaking. • Transfer HCl solution in each well into one 1.5 ml microcentrifuge tube. […]

As for `N#Cc1c(N)nc(SCC(N)=O)c(C#N)c1-c1ccc(OCC2CC2)cc1` [BAY 60-6583], in the experiment on OVX mice (1 mg/kg intraperitoneally every 2 days, 8 weeks), the “bone tissue, H&E staining” value is “attenuation of bone loss”. In addition, in the experiment with OVX mice (8 weeks), the “OVX changes of vertebra BMD, BV/TV, Tb.N, Tb.Sp by microCT” value is on record as “attenuated” and the “femur bone volume (BV/TV) by microCT” value is “bone loss was diminished”. For the same molecule, in the experiment on OVX mice (8 weeks, bone labeling), the “mineral apposition rate and bone formation rate” value is “abrogation of the bone loss”. In addition, the “maximum load and stiffness of tibia” value with OVX mice (8 weeks, compared to the corresponding controls) was “improved”. Further, in the experiment with OVX mice (8 weeks, compared to the vehicle control), the “TRAP-positive cells on the bone surface” value is “decreased number”. In addition, the “CD73 and CD39 expression levels, immunofluorescence” value with OVX mice (vehicle- vs BAY 60-6583-treated groups) is reported as “no significant differences”.
Turning to `Nc1ncnc2c1ncn2[C@@H]1O[C@H](CO)[C@@H](O)[C@H]1O` [adenosine], the “expression of osterix (OSX) and osteopontin (OPN)” value in experiment [1] was “up-regulation”. In addition, the “expression of Nfatc1, ACP5 and CTSK” value in experiment [2] was “reduced expression”. The “fold change of alizarin red S deposition, ADO compared to GM” value in experiment [3] (female) is recorded as “larger fold change”. Besides, in experiment [3] (young and aged cells from either sex, 2D culture, ADO 60 ug/mL), the “osteogenic differentiation, alizarin red S deposition” value is on record as “induced osteogenic differentiation”.
